Laboratory results from patent publication US9018206B2, “Carboxamide compounds and their use as calpain inhibitors” (AbbVie Deutschland GmbH & Co. KG, priority 2009, dated 2015).

Key:
Format in all cases: biochemical
[1] = target: T1, cathepsin B isolated from human liver (Homo sapiens, UniProt P07858); assay: Cathepsin B enzyme inhibition in vitro (kinetic fluorescence assay); details: Ki(cathepsin B)/Ki(calpain) ratio
T1 construct: cathepsin B—isolated from human liver; purchased Calbiochem 219362; host or cells: human liver (tissue-derived)
Method: (§1) Testing for blockade of the corresponding enzymic activities was carried out by means of kinetic fluorescence assays (excitation 390 nm, emission 460 nm).
(§2) Apparent Ki values were calculated from the experimentally determined IC50 values by the Cheng-Prussoff relation assuming a reversible competitive enzyme inhibition. The Km values of the substrates used under the assay conditions indicated above were: 90 μM (Z-Phe-Arg-AMC, cathepsin B), 10 μM (Z-Gly-Pro-Arg-AMC, cathepsin K), 2 μM (Z-Phe-Arg-AMC, cathepsin L), and 30 μM (Z-Val-Val-Arg-AMC, cathepsin S).
(§3) The indicated Ki values are averages of the inhibition constants calculated on the basis of 2 to 4 independent dose-effect plots.
(§4) • 20 nM calpain-I—isolated from human erythrocytes (Calbiochem #208713), 100 μM Suc-Leu-Tyr-AMC (Bachem #I-1355) as substrate in buffer with 62 mM imidazole, 0.3 mM CaCl2, 0.10% CHAPS, 0.05% BSA, 1 mM DTT at pH 7.3 and room temperature. 1. Cathepsin B: • 0.25 nM cathepsin B—isolated from human liver (Calbiochem #219362), 100 μM Z-Phe-Arg-AMC (Bachem #I-1160) as substrate 50 mM MES, 2 mM EDTA, 0.05% Brij 35, 2.5 mM L-cysteine, pH 6.0, room temperature. 3. Cathepsin K: • 3 nM cathepsin K activated from recombinant human procathepsin K from E. coli (Calbiochem #342001), 10 μM Z-Gly-Pro-Arg-AMC (Biomol #P-142) as substrate in 50 mM MES, 2 mM EDTA, 0.05% Brij 35, 2.5 mM L-cysteine, pH 6.0, room temperature. 4. Cathepsin L: • 1 nM cathepsin L—isolated from human liver (Calbiochem #219402), 2 μM Z-Phe-Arg-AMC (Bachem #I-1160) as substrate in 50 mM MES, 2 mM EDTA, 0.05% Brij 35, 2.5 mM L-cysteine, pH 6.0, room temperature. 5. Cathepsin S: • 0.5 nM recombinant human cathepsin S from E. coli (Calbiochem #219343), 20 μM Z-Val-Val-Arg-AMC (Bachem #I-1540) as substrate in 50 mM MES, 2 mM EDTA, 0.05% Brij 35, 2.5 mM L-cysteine, pH 6.0, room temperature.

[2] = target: T2, cathepsin L isolated from human liver (Homo sapiens, UniProt P07711); assay: Cathepsin L enzyme inhibition in vitro (kinetic fluorescence assay); details: Ki(cathepsin L)/Ki(calpain) ratio
T2 construct: cathepsin L—isolated from human liver; purchased Calbiochem 219402; host or cells: human liver (tissue-derived)
T2 sequence (P07711 114-333): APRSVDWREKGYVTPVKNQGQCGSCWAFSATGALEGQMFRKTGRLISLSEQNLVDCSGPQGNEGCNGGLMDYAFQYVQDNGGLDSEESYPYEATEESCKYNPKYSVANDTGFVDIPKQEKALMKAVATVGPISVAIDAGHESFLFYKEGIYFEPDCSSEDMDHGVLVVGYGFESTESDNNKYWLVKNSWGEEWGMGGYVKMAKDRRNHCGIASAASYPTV
Method: as §1, §2, §3, §4

[3] = target: T3, cathepsin K activated from recombinant human procathepsin K (Homo sapiens, UniProt P43235); assay: Cathepsin K enzyme inhibition in vitro (kinetic fluorescence assay); details: Ki(cathepsin K)/Ki(calpain) ratio
T3 construct: purchased Calbiochem 342001; host or cells: E. coli
T3 sequence (P43235 115-329): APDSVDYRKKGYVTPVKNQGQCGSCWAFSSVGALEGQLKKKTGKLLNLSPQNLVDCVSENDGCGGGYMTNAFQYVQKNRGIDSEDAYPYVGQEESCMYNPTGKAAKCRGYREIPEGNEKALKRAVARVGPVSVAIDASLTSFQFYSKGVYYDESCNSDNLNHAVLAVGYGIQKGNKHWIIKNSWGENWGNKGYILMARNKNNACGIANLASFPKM
Method: as §1, §2, §3, §4

[4] = target: T4, calpain-I isolated from human erythrocytes (Homo sapiens, UniProt P07384); assay: Calpain I enzyme inhibition in vitro (kinetic fluorescence assay); details: apparent Ki from IC50 (Cheng-Prussoff); 20 nM calpain-I, 100 μM Suc-Leu-Tyr-AMC, pH 7.3, room temperature
T4 construct: calpain-I—isolated from human erythrocytes; purchased Calbiochem 208713; host or cells: human erythrocytes (tissue-derived)
T4 sequence (P07384 1-714): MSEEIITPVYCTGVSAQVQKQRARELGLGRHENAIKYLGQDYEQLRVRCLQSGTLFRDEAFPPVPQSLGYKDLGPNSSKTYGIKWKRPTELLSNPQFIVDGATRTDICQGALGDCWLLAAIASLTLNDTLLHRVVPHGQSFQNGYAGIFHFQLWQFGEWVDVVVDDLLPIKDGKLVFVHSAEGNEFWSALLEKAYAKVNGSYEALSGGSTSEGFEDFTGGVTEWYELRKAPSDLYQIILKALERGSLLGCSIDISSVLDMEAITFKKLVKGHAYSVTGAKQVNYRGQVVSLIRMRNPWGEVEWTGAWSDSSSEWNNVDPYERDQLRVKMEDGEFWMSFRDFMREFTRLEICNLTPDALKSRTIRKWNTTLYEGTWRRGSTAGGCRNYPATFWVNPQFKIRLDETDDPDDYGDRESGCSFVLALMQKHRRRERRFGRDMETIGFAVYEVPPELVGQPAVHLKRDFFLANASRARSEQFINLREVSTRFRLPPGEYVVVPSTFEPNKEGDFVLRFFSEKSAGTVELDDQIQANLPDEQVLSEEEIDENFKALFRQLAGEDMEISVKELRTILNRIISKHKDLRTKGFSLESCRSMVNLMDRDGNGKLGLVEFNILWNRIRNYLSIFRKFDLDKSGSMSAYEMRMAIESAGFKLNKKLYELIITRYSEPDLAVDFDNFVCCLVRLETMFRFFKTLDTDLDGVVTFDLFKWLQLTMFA
T4 sequence (P04632 1-268 partner): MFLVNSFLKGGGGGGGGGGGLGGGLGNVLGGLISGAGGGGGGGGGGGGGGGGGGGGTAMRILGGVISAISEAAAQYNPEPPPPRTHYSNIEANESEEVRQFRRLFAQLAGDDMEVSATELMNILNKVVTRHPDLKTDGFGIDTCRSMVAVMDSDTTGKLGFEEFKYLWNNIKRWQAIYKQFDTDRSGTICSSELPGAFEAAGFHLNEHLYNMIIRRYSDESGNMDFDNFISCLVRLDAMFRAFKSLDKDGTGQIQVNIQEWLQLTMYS
Method: as §1, §2, §3, §4

[5] = target: T5, recombinant human cathepsin S (Homo sapiens, UniProt P25774); assay: Cathepsin S enzyme inhibition in vitro (kinetic fluorescence assay); details: Ki(cathepsin S)/Ki(calpain) ratio
T5 construct: purchased Calbiochem 219343; host or cells: E. coli
T5 sequence (P25774 115-331): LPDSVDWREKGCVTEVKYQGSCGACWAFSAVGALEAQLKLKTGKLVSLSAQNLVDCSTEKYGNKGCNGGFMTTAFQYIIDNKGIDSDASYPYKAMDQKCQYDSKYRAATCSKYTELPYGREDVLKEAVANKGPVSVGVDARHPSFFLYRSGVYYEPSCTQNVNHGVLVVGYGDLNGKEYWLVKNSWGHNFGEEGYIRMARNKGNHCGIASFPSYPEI
Method: as §1, §2, §3, §4

Compound	Sel cat. B [1]	Sel cat. L [2]	Sel cat. K [3]	Ki [4] [nM]	Sel cat. S [5]
NC(=O)C(=O)C(Cc1ccccc1)NC(=O)[C@H]1CCC(=O)N1Cc1ccccc1 (mixture of isomers) [Example 1, (2R)—N-(4-Amino-3,4-dioxo-1-phenylbutan-2-yl)-1-benzyl-5-oxopyrrolidine-2-carboxamide]	++ (10<Ki(cathepsin B)/Ki(calpain)≦30)	++ (10<Ki(cathepsin B)/Ki(calpain)≦30)	++ (10<Ki(cathepsin B)/Ki(calpain)≦30)	< 50	+++ (Ki(cathepsin S)/Ki(calpain) ratio of >100)
CCCNC(=O)C(=O)C(Cc1ccccc1)NC(=O)[C@H]1CCC(=O)N1Cc1ccccc1 (mixture of isomers) [Example 26, (2R)-1-Benzyl-N-(3,4-dioxo-1-phenyl-4-(propylamino)butan-2-yl)-5-oxopyrrolidine-2-carboxamide]	+++ (Ki(cathepsin B)/Ki(calpain) ratio of >30)	++ (10<Ki(cathepsin B)/Ki(calpain)≦30)	+++ (Ki(cathepsin K)/Ki(calpain) ratio of >30)	100 to 600	–
O=C(NC1CC1)C(=O)C(Cc1ccccc1)NC(=O)[C@H]1CCC(=O)N1Cc1ccccc1Cl (mixture of isomers) [Example 46, (2R)-1-(2-Chlorobenzyl)-N-(4-(cyclopropylamino)-3,4-dioxo-1-phenylbutan-2-yl)-5-oxopyrrolidine-2-carboxamide]	++ (10<Ki(cathepsin B)/Ki(calpain)≦30)	+++ (Ki(cathepsin L)/Ki(calpain) ratio of >30)	+++ (Ki(cathepsin K)/Ki(calpain) ratio of >30)	50 to 100	+++ (Ki(cathepsin S)/Ki(calpain) ratio of >100)
CCNC(=O)C(=O)C(Cc1ccccc1)NC(=O)[C@H]1CCC(=O)N1Cc1ccccc1Cl (mixture of isomers) [Example 47, (2R)-1-(2-Chlorobenzyl)-N-(4-(ethylamino)-3,4-dioxo-1-phenylbutan-2-yl)-5-oxopyrrolidine-2-carboxamide]	+++ (Ki(cathepsin B)/Ki(calpain) ratio of >30)	+++ (Ki(cathepsin L)/Ki(calpain) ratio of >30)	+++ (Ki(cathepsin K)/Ki(calpain) ratio of >30)	100 to 600	++ (30<Ki(cathepsin B)/Ki(calpain)≦100)
O=C(NCc1nccs1)C(=O)C(Cc1ccccc1)NC(=O)[C@H]1CCC(=O)N1Cc1ccccc1 (mixture of isomers) [Example 59, (2R)-1-Benzyl-N-(3,4-dioxo-1-phenyl-4-(thiazol-2-ylmethylamino)butan-2-yl)-5-oxopyrrolidine-2-carboxamide]	+++ (Ki(cathepsin B)/Ki(calpain) ratio of >30)	++ (10<Ki(cathepsin B)/Ki(calpain)≦30)	+++ (Ki(cathepsin K)/Ki(calpain) ratio of >30)	100 to 600	+++ (Ki(cathepsin S)/Ki(calpain) ratio of >100)
O=C(NCc1cccs1)C(=O)C(Cc1ccccc1)NC(=O)[C@H]1CCC(=O)N1Cc1ccccc1 (mixture of isomers) [Example 60, (2R)-1-Benzyl-N-(3,4-dioxo-1-phenyl-4-(thiophen-2-ylmethylamino)butan-2-yl)-5-oxopyrrolidine-2-carboxamide]	+++ (Ki(cathepsin B)/Ki(calpain) ratio of >30)	++ (10<Ki(cathepsin B)/Ki(calpain)≦30)	+++ (Ki(cathepsin K)/Ki(calpain) ratio of >30)	50 to 100	+++ (Ki(cathepsin S)/Ki(calpain) ratio of >100)
O=C(NC1CC1)C(=O)C(Cc1ccccc1)NC(=O)[C@H]1CCC(=O)N1Cc1c(Cl)cccc1Cl (mixture of isomers) [Example 61, (2R)—N-(4-(Cyclopropylamino)-3,4-dioxo-1-phenylbutan-2-yl)-1-(2,6-dichlorobenzyl)-5-oxopyrrolidine-2-carboxamide]	+ (5<Ki(cathepsin B)/Ki(calpain)≦10)	+++ (Ki(cathepsin L)/Ki(calpain) ratio of >30)	+++ (Ki(cathepsin K)/Ki(calpain) ratio of >30)	100 to 600	+++ (Ki(cathepsin S)/Ki(calpain) ratio of >100)
NC(=O)C(=O)C(Cc1ccccc1)NC(=O)[C@H]1CCC(=O)N1Cc1ccccc1OC(F)(F)F (stereo partly drawn) [Example 9, (2R)—N-(4-Amino-3,4-dioxo-1-phenylbutan-2-yl)-5-oxo-1-[2-(trifluoromethoxy)-benzyl]pyrrolidine-2-carboxamide]	–	+++ (Ki(cathepsin L)/Ki(calpain) ratio of >30)	+++ (Ki(cathepsin K)/Ki(calpain) ratio of >30)	50 to 100	+++ (Ki(cathepsin S)/Ki(calpain) ratio of >100)
NC(=O)C(=O)C(Cc1ccccc1)NC(=O)[C@H]1CCCC(=O)N1Cc1ccccc1 (stereo partly drawn) [Example 14, (2R)—N-(4-Amino-3,4-dioxo-1-phenylbutan-2-yl)-1-benzyl-6-oxopiperidine-2-carboxamide]	++ (10<Ki(cathepsin B)/Ki(calpain)≦30)	++ (10<Ki(cathepsin B)/Ki(calpain)≦30)	–	50 to 100	++ (30<Ki(cathepsin B)/Ki(calpain)≦100)
NC(=O)C(=O)C(Cc1ccccc1)NC(=O)[C@H]1CCC(=O)N1c1ccccc1 (stereo partly drawn) [Example 15, (2R)—N-(4-Amino-3,4-dioxo-1-phenylbutan-2-yl)-5-oxo-1-phenylpyrrolidine-2-carboxamide]	++ (10<Ki(cathepsin B)/Ki(calpain)≦30)	+ (5<Ki(cathepsin L)/Ki(calpain)≦10)	+ (5<Ki(cathepsin K)/Ki(calpain)≦10)	–	+ (10<Ki(cathepsin S)/Ki(calpain)≦30)
